Reference: PubChem BioAssay (NCI)
Values joined by “and” are separate entries in the source; they are usually repeats but may differ in a detail not shown here. Identical values can stand only once.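 Step 1: Grow cells in 96-well plates. Step 2: Expose to compound for 48 hours at 5 concentrations. Step 3: Interpolate endpoints linearly; if unreached, use highest concentration. GI50 is the concentration that inhibits growth by half. TGI: concentration producing complete growth inhibition.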

How the values were obtained:
Assay in all cases: growth of human tumour cells (NCI), 48 h
KM12 colon = test system: KM12 colon
DU-145 prostate = test system: DU-145 prostate
T-47D breast = test system: T-47D breast
MALME-3M melanoma = test system: MALME-3M melanoma
U251 CNS = test system: U251 CNS
SK-MEL-5 melanoma = test system: SK-MEL-5 melanoma
HS 578T breast = test system: HS 578T breast
786-0 renal = test system: 786-0 renal
NCI-H522 lung = test system: NCI-H522 lung
UACC-257 melanoma = test system: UACC-257 melanoma

| SMILES | TGI (KM12 colon) | TGI (DU-145 prostate) [µM] | TGI (T-47D breast) [µM] | TGI (MALME-3M melanoma) | TGI (U251 CNS) | TGI (SK-MEL-5 melanoma) | TGI (HS 578T breast) [µM] | TGI (786-0 renal) | TGI (NCI-H522 lung) | TGI (UACC-257 melanoma) | GI50 (KM12 colon) [µM] | GI50 (DU-145 prostate) [µM] | GI50 (T-47D breast) [µM] | GI50 (MALME-3M melanoma) [µM] | GI50 (U251 CNS) [µM] | GI50 (SK-MEL-5 melanoma) [µM] | GI50 (HS 578T breast) [µM] | GI50 (786-0 renal) [µM] | GI50 (NCI-H522 lung) [µM] | GI50 (UACC-257 melanoma) [µM] |
| --- | --- | --- | --- | --- | --- | --- | --- | --- | --- | --- | --- | --- | --- | --- | --- | --- | --- | --- | --- | --- |
| CC(C)(C(=O)NN)c1ccccc1 | > 100 µM | > 100 | > 100 | > 100 µM | > 100 µM | > 100 µM | > 100 | > 100 µM | > 100 µM | > 100 µM | – | – | – | – | – | – | – | – | – | – |
| CCCN1C(=O)/C(=c2\sc3n(c2=O)C2C(NN=3)N(CC)C(=O)N2CC)c2ccccc21 (stereo not given) | 13.8 µM | 11 | > 88.7 | 25.1 µM | 12.3 µM | 3.15 µM | > 39.8 | 16.5 µM | 4.51 µM | 14 µM | 0.41 | 0.421 | 0.438 | 0.612 | 0.485 | 0.369 | 0.386 | 0.89 | 0.356 | 1.22 |
| C[C@]12CC[C@H]3[C@@H](CCC4=CC(=O)CC[C@@H]43)[C@@H]1CC[C@@H]2OC(=O)N(CCCl)N=O | 19.2 µM | 4.41 | 29.3 | 28.9 µM | 17.4 µM | 16.1 µM | 34.2 | 4.82 µM | 29 µM | 24.8 µM | 2.95 | 0.433 | 3.52 | 11.3 | 0.346 | 1.99 | 5.2 | 0.0723 | 5.79 | 10.7 |
| CC(=O)OC1c2ccccc2CC2(OC(C)=O)c3ccccc3C12 (stereo not given) | > 100 µM | > 100 | > 100 | > 100 µM | > 100 µM | – | > 100 | > 100 µM | – | > 100 µM | – | – | – | – | – | – | – | – | – | – |
| CSc1nnc(CCSc2ccnc3c(C(F)(F)F)cccc23)o1 | > 100 µM | > 100 | > 100 | > 100 µM | > 100 µM | > 100 µM | 73.2 | > 100 µM | > 100 µM | > 100 µM | > 100 | > 100 | 24.9 | > 100 | > 100 | 46.1 | 18 | 95.3 | > 100 | > 100 |
| CCN=C1C=CC(=C(c2ccc(N(C)C)cc2)c2ccc(N(C)C)cc2)c2ccccc21 | 0.18 µM | 0.357 | 1.52 | 0.0855 µM | 0.198 µM | 0.213 µM | 1.02 | 0.37 µM | – | 0.0592 µM | 0.0383 | 0.0829 | 0.0567 | 0.026 | 0.0297 | 0.0609 | 0.149 | 0.0866 | – | 0.0234 |
| Cn1c(=O)c2[nH]c(/N=N/N3CCN(CCO)CC3)nc2n(C)c1=O | > 100 µM | > 100 | > 100 | > 100 µM | > 100 µM | > 100 µM | > 100 | > 100 µM | > 100 µM | > 100 µM | – | – | – | – | – | – | – | – | – | – |
| O=C1C(Cl)=C(N/N=c2/[nH][nH]/c(=N/NC3=C(Cl)C(=O)c4ccccc4C3=O)c3ccccc23)C(=O)c2ccccc21 | 20.7 µM | 33.6 | 36.8 | – | 29.2 µM | 29.3 µM | 66.3 | 32.3 µM | 10.9 µM | 28.7 µM | 5.16 | 17.8 | 6.71 | – | 15.4 | 14.1 | 13.5 | 17.4 | 2.78 | 14.9 |
| N=C(N)c1nn(C2OC(CO)C(O)C2O)c2nc[nH]c(=O)c12 (stereo not given) | 1.46 µM | 0.78 | 2.71 | 0.612 µM | > 37.1 µM | 1.53 µM | 2.27 | 4.61 µM | 0.69 µM | 1.29 µM | 0.341 | 0.196 | 0.255 | 0.206 | 2.06 | 0.444 | 0.376 | 0.642 | 0.239 | 0.292 |
| N#CSc1ncnc2nc[nH]c12 | > 48.5 µM | > 38.7 | > 80 | > 100 µM | > 100 µM | > 100 µM | > 92.6 | > 100 µM | 25.6 µM | > 100 µM | 3.26 | 0.548 | 2.25 | 10.6 | 32.4 | 15.2 | 4.79 | 3.53 | 3.32 | 26.2 |
| CCOC(=O)Cc1c[nH]c(=S)[nH]c1=O | > 100 µM | > 100 | > 100 | > 100 µM | > 100 µM | > 100 µM | > 100 | > 100 µM | > 100 µM | > 100 µM | > 100 | > 100 | > 100 | > 100 | > 100 | > 100 | > 100 | > 100 | > 100 | > 100 |
| CC[C@H](Nc1nc(N)nc(C)c1C#N)c1nc2cccc(CN(C)c3ncc(C(=O)NO)cn3)c2c(=O)n1-c1ccccc1 | 5.21 µM | > 16.7 | – | 2.47 µM | 2.03 µM | 1.12 µM | > 11.1 | 6.47 µM | 4.27 µM | 3.11 µM | 1.26 | 1.11 | 0.242 | 0.129 | 0.663 | 0.391 | 0.474 | 1.53 | 0.174 | 0.36 |
| C=C(C)[C@@H]1CC=C(CO)CC1 | > 10 µM and 1050 µM | > 10 | > 10 | > 10 µM and 1080 µM | > 10 µM and 806 µM | > 10 µM and 649 µM | > 10 | > 10 µM and 943 µM | > 10 µM and 1150 µM | > 10 µM and 1150 µM | > 10 | – | – | > 10 | > 10 | > 10 | – | > 10 | > 10 | > 10 |
| CCc1ccc(NC(=O)Nc2c[nH]c3ccccc23)cc1 | > 43.4 µM | > 51.5 | > 82.2 | > 49.4 µM | > 51.7 µM | > 54.1 µM | > 67.8 | > 81.9 µM | 2.67 µM | > 59.9 µM | 5.63 | > 34 | 16.3 | 8 | 31.5 | 32.7 | 10.4 | 8.55 | 1.18 | > 38.6 |
